Literature values as cited in patent US7235589B2, “Method of treating patients undergoing kidney dialysis” (Bio Numerik Pharmaceuticals, Inc., priority 2004, dated 2007).

Tests used:
[1] = accepted value
humans = conditions: doses exceeding 40 g/m^2
mice = conditions: intravenously, doses higher than the accepted oral LD50 for common table salt (3750 mg/kg)
dogs = conditions: intravenously, doses higher than the accepted oral LD50 for common table salt (3750 mg/kg)

Question: With [Cl-].[Na+] [common table salt] as the molecule, how does the “oral LD50” value [1] read?
Answer: Its value is 3750 mg/kg.

Question: With O=S(=O)([O-])CCSSCCS(=O)(=O)[O-].[Na+].[Na+] [dimesna, disodium 2,2′-dithiobis ethane sulfonate] as the molecule, how does the adverse effects (humans) read?
Answer: The adverse effects was “no adverse effects”.

Question: And the adverse effects (mice)?
Answer: The adverse effects was “no adverse effects”.

Question: And the adverse effects (dogs)?
Answer: The adverse effects was “no adverse effects”.
